According to patent US20230120597A1, “CO-AGONISTS AT GLP-1 AND GIP RECEPTORS SUITABLE FOR ORAL DELIVERY” (Novo Nordisk A/S, priority 2020, published 2023):
Marks after values point to notes of the source that are not given here. Starred links: 1 amine or outer side, 2 acyl side, 3 side chain; linkers in the order of their positions; H or OH if unused. Non-standard residues stand in square brackets, D forms with d. Residues, ends and D or L forms follow the SMILES beside them. Groups on a side chain read outwards from the residue. *: point of attachment. C18 diacid = O=C(O)CCCCCCCCCCCCCCCCC(=O)*; γGlu = O=C(O)[C@H](CCC(=O)[*:2])N[*:1]; εLys = N[C@@H](CCCCN[*:1])C(=O)[*:2]; Aib = CC(C)(N)C(=O)O

Experiment: Pharmacokinetic study in dogs, oral dosing of tablet compositions with SNAC
Assay type: in vivo, Beagle dogs
Experimental: The purpose of this example is to determine the half-life and plasma exposure in vivo of the compounds of the present invention after p.o. administration to beagle dogs, i.e. the terminal half-life and concentration of test substance that reaches circulation with time. This is done in a pharmacokinetic (PK) study, where these parameters of the compound in question are determined. By terminal half-life is generally meant the period of time it takes to halve a certain plasma concentration, measured after the initial distribution phase.
The amount of SNAC in the tablet composition was 100-300 mg, the amount of magnesium stearate in the tablet composition was 7.7 mg, and the target amount of each test substance in the tablet composition was 3-4 mg.
Male beagle dogs, 1-7 years of age and weighing 9-17 kg during the study period, were included in the study. The dogs were dosed in a fasting state. The dogs were group housed in pens (12 hours light: 12 hours dark), and fed individually and restrictedly once daily with Royal Canin Medium Adult dog food (Royal Canin Products, China Branch, or Brogaarden A/S, Denmark). The dogs were used for repeated PK studies with a suitable wash-out period between successive dosing. An appropriate acclimatization period was given prior to initiation of the first PK study. All handling, dosing, and blood sampling of the animals were performed by trained and skilled staff. Before the studies, the dogs were fasted overnight and from 0 to 4 hours after dosing. The dogs were restricted to water 1 hour before dosing until 4 hours after dosing, but otherwise had ad libitum access to water during the whole period.
The compositions were administered by a single oral dosing to the dogs in groups of 6-8 dogs. […] The mouth was then closed, and 10 mL of tap water was given by syringe or gavage to facilitate swallowing of the tablet.
One blood sample was drawn before dosing, and additional samples were drawn at predefined time points after dosing for up to 240 hours, such as up to 10 hours, to adequately cover the full plasma concentration-time absorption profile of the test substance. For each blood sample time point, approximately 0.8 mL of whole blood was collected in a 1.5 mL EDTA-coated tube, which was gently turned to mix the sample with EDTA. Blood samples were collected in EDTA buffer (8 mM) and then centrifuged at 4° C. 2000 g for 10 minutes. Plasma was pipetted into Micronic tubes on dry ice, and kept at −20° C. or lower until analysis. Blood samples were taken as appropriate, for example from a venflon in the cephalic vein in the front leg for the first 2 hours and then with syringe from the jugular vein for the rest of the time points. The first few drops were allowed to drain from the venflon to avoid heparin saline from the venflon in the sample.
All blood samples were collected into test tubes containing EDTA for stabilisation and kept on ice until centrifugation. Plasma was separated from whole blood by centrifugation and the plasma was stored at −20° C. or lower until analysis.
The plasma was analysed for test substance using LC-MS (Liquid Chromatography-Mass Spectrometry) as known to the person skilled in the art. […] RP-HPLC separation was achieved using a linear gradient of 1:1 acetonitrile/methanol in 1% aqueous formic acid using either: a Phenomenex Onyx Monolithic C18 column (50×2.0 mm) and a flow rate of 0.8 mL/min at 30° C.; or an Agilent Poroshell 120 SB-C18 column (50×2.1 mm, 2.7 μm) at a flow rate of 0.4 mL/min at 60° C. The mass spectrometer was operated in either positive ionization SIM mode or positive ionization PRM mode.
For each individual animal, a plasma concentration-time profile was analysed by a non-compartmental model in Pharsight Phoenix WinNonLin ver.

Row | SMILES | AUC/Dose (dog, in vivo, po) | AUC/Dose (oral tablet, SNAC 300 mg, test substance 3 mg, Beagle dogs, arithmetic mean) | Cmax/Dose (dog, in vivo, po)
1 | CC[C@H](C)[C@H](NC(=O)[C@H](Cc1ccccc1)NC(=O)[C@H](CCC(=O)O)NC(=O)[C@H](CCCNC(=N)N)NC(=O)[C@H](C)NC(=O)[C@H](C)NC(=O)[C@H](CCC(N)=O)NC(=O)[C@H](CCCCNC(=O)[C@@H](N)CCCCNC(=O)[C@@H](N)CCCCNC(=O)CC[C@H](NC(=O)CCCCCCCCCCCCCCCCC(=O)O)C(=O)O)NC(=O)[C@H](CCC(=O)O)NC(=O)[C@H](CC(C)C)NC(=O)[C@H](CC(C)C)NC(=O)[C@@H](NC(=O)[C@H](CO)NC(=O)[C@H](Cc1ccc(O)cc1)NC(=O)[C@H](CC(=O)O)NC(=O)[C@H](CO)NC(=O)[C@@H](NC(=O)[C@H](Cc1ccccc1)NC(=O)[C@@H](NC(=O)CNC(=O)[C@H](CCC(=O)O)NC(=O)C(C)(C)NC(=O)[C@@H](N)Cc1ccc(O)cc1)[C@@H](C)O)[C@@H](C)O)[C@@H](C)CC)C(=O)N[C@@H](CC(N)=O)C(=O)N[C@@H](Cc1c[nH]c2ccccc12)C(=O)N[C@@H](CC(C)C)C(=O)N[C@@H](CC(C)C)C(=O)N[C@@H](C)C(=O)NCC(=O)NCC(=O)N1CCC[C@H]1C(=O)N[C@@H](CO)C(=O)N[C@@H](CO)C(=O)O [Compound No. 20] (H-Y[Aib]EGTFTSDYSILLEK([εLys-εLys-γGlu-C18 diacid])QAAREFINWLLAGGPSS-OH; N-terminus assumed) | 10.8 kg·h/L | – | –
2 | CC[C@H](C)[C@H](NC(=O)[C@H](Cc1ccccc1)NC(=O)[C@H](CCC(=O)O)NC(=O)[C@H](Cc1c[nH]cn1)NC(=O)[C@H](C)NC(=O)[C@H](C)NC(=O)[C@H](CCC(N)=O)NC(=O)[C@H](CCCCNC(=O)[C@@H](N)CCCCNC(=O)[C@@H](N)CCCCNC(=O)CC[C@H](NC(=O)CCCCCCCCCCCCCCCCC(=O)O)C(=O)O)NC(=O)[C@H](CCC(=O)O)NC(=O)[C@H](CC(C)C)NC(=O)[C@H](CC(C)C)NC(=O)[C@@H](NC(=O)[C@H](CO)NC(=O)[C@H](Cc1ccc(O)cc1)NC(=O)[C@H](CC(=O)O)NC(=O)[C@H](CO)NC(=O)[C@@H](NC(=O)[C@H](Cc1ccccc1)NC(=O)[C@@H](NC(=O)CNC(=O)[C@H](CCC(=O)O)NC(=O)C(C)(C)NC(=O)[C@@H](N)Cc1ccc(O)cc1)[C@@H](C)O)[C@@H](C)O)[C@@H](C)CC)C(=O)N[C@@H](CC(N)=O)C(=O)N[C@@H](Cc1c[nH]c2ccccc12)C(=O)N[C@@H](CC(C)C)C(=O)N[C@@H](CC(C)C)C(=O)N[C@@H](C)C(=O)NCC(=O)NCC(=O)N1CCC[C@H]1C(=O)N[C@@H](CO)C(=O)N[C@@H](CO)C(=O)NCC(=O)N[C@@H](C)C(=O)N1CCC[C@H]1C(=O)N1CCC[C@H]1C(=O)N1CCC[C@H]1C(=O)N[C@@H](CO)C(=O)O [Compound No. 26] (H-Y[Aib]EGTFTSDYSILLEK([εLys-εLys-γGlu-C18 diacid])QAAHEFINWLLAGGPSSGAPPPS-OH) | 27.4* kg*h/L | – | –
3 | CC[C@H](C)[C@H](NC(=O)[C@H](Cc1ccccc1)NC(=O)[C@H](CCC(=O)O)NC(=O)[C@H](CCCNC(=N)N)NC(=O)[C@H](C)NC(=O)[C@H](C)NC(=O)[C@H](CCC(N)=O)NC(=O)[C@H](CCCCNC(=O)[C@@H](N)CCCCNC(=O)[C@@H](N)CCCCNC(=O)CC[C@H](NC(=O)CCCCCCCCCCCCCCCCC(=O)O)C(=O)O)NC(=O)[C@H](CCC(=O)O)NC(=O)[C@H](CC(C)C)NC(=O)[C@H](CC(C)C)NC(=O)[C@@H](NC(=O)[C@H](CO)NC(=O)[C@H](Cc1ccc(O)cc1)NC(=O)[C@H](CC(=O)O)NC(=O)[C@H](CO)NC(=O)[C@@H](NC(=O)[C@H](Cc1ccccc1)NC(=O)[C@@H](NC(=O)CNC(=O)[C@H](CCC(=O)O)NC(=O)C(C)(C)NC(=O)[C@@H](N)Cc1ccc(O)cc1)[C@@H](C)O)[C@@H](C)O)[C@@H](C)CC)C(=O)N[C@@H](CCC(=O)O)C(=O)N[C@@H](Cc1c[nH]c2ccccc12)C(=O)N[C@@H](CC(C)C)C(=O)N[C@@H](CC(C)C)C(=O)N[C@@H](CCCNC(=N)N)C(=O)NCC(=O)NCC(=O)N1CCC[C@H]1C(=O)N[C@@H](CCC(=O)O)C(=O)N[C@@H](CO)C(=O)NCC(=O)N[C@@H](C)C(=O)N1CCC[C@H]1C(=O)N1CCC[C@H]1C(=O)N1CCC[C@H]1C(=O)N[C@@H](CO)C(=O)O [Compound No. 28] (H-Y[Aib]EGTFTSDYSILLEK([εLys-εLys-γGlu-C18 diacid])QAAREFIEWLLRGGPESGAPPPS-OH) | – | 18.6** kg*h/L | –
4 | CC[C@H](C)[C@H](NC(=O)[C@H](Cc1ccccc1)NC(=O)[C@H](CCC(=O)O)NC(=O)[C@H](CCCNC(=N)N)NC(=O)[C@H](C)NC(=O)[C@H](C)NC(=O)[C@H](CCC(N)=O)NC(=O)[C@H](CCC(=O)O)NC(=O)[C@H](CCC(=O)O)NC(=O)[C@H](CC(C)C)NC(=O)[C@H](CC(C)C)NC(=O)[C@H](CCCCNC(=O)[C@@H](N)CCCCNC(=O)[C@@H](N)CCCCNC(=O)CC[C@H](NC(=O)CCCCCCCCCCCCCCCCC(=O)O)C(=O)O)NC(=O)[C@H](CO)NC(=O)[C@H](Cc1ccc(O)cc1)NC(=O)[C@H](CC(=O)O)NC(=O)[C@H](CO)NC(=O)[C@@H](NC(=O)[C@H](Cc1ccccc1)NC(=O)[C@@H](NC(=O)CNC(=O)[C@H](CCC(=O)O)NC(=O)C(C)(C)NC(=O)[C@@H](N)Cc1ccc(O)cc1)[C@@H](C)O)[C@@H](C)O)C(=O)N[C@@H](CCC(=O)O)C(=O)N[C@@H](Cc1c[nH]c2ccccc12)C(=O)N[C@@H](CC(C)C)C(=O)N[C@@H](CC(C)C)C(=O)N[C@@H](C)C(=O)NCC(=O)NCC(=O)N1CCC[C@H]1C(=O)N[C@@H](CO)C(=O)N[C@@H](CO)C(=O)NCC(=O)N[C@@H](C)C(=O)N1CCC[C@H]1C(=O)N1CCC[C@H]1C(=O)N1CCC[C@H]1C(=O)N[C@@H](CO)C(=O)O [Compound No. 40] | 27.0 kg·h/L | – | –
5 | CC[C@H](C)[C@H](NC(=O)[C@H](Cc1ccccc1)NC(=O)[C@H](CCC(=O)O)NC(=O)[C@H](CCCNC(=N)N)NC(=O)[C@H](C)NC(=O)[C@H](C)NC(=O)[C@H](CCC(N)=O)NC(=O)[C@H](CCC(=O)O)NC(=O)[C@H](CCC(=O)O)NC(=O)[C@H](CC(C)C)NC(=O)[C@H](CC(C)C)NC(=O)[C@@H](NC(=O)[C@H](CO)NC(=O)[C@H](Cc1ccc(O)cc1)NC(=O)[C@H](CC(=O)O)NC(=O)[C@H](CO)NC(=O)[C@@H](NC(=O)[C@H](Cc1ccccc1)NC(=O)[C@@H](NC(=O)CNC(=O)[C@H](CCC(=O)O)NC(=O)C(C)(C)NC(=O)[C@@H](N)Cc1ccc(O)cc1)[C@@H](C)O)[C@@H](C)O)[C@@H](C)CC)C(=O)N[C@@H](CCC(=O)O)C(=O)N[C@@H](Cc1c[nH]c2ccccc12)C(=O)N[C@@H](CC(C)C)C(=O)N[C@@H](CC(C)C)C(=O)N[C@@H](C)C(=O)NCC(=O)NCC(=O)N1CCC[C@H]1C(=O)N[C@@H](CO)C(=O)N[C@@H](CCCCNC(=O)[C@@H](N)CCCCNC(=O)[C@@H](N)CCCCNC(=O)CC[C@H](NC(=O)CCCCCCCCCCCCCCCCC(=O)O)C(=O)O)C(=O)NCC(=O)N[C@@H](C)C(=O)N1CCC[C@H]1C(=O)N1CCC[C@H]1C(=O)N1CCC[C@H]1C(=O)N[C@@H](CO)C(=O)O [Compound No. 43] (H-Y[Aib]EGTFTSDYSILLEEQAAREFIEWLLAGGPSK([εLys-εLys-γGlu-C18 diacid])GAPPPS-OH) | 21.4 kg·h/L | – | 0.22 kg/L
